This is an account of results in US20060019987A1, “Methods and compositions for inhibiting, destroying, and/or inactivating viruses” (priority 2004, published 2006).

The test system of experiment [1] is hAd4 (RI-67 strain). Kind of experiment: Virucidal efficacy: cytopathic effect of pretreated hAd4 in A549 cell monolayers. The class given is cell-based. Conditions: hAd4 pretreated 1 h at 35° C.; 10^7 PFU (and 1:10 dilution); A549 lung epithelial cells; 2 days post infection; vs PBS-treated virus (marked CPE). On the procedure: (§1) The experiments included human (hAd) serotypes of species B (hAd3), C (hAd5), and E (hAd4) and the long strain of RSV, representative of A. Two independent experiments were carried out for each virus.
Phosphate buffered saline (PBS) pretreatment of virus suspensions was used as a control.
After the 1-h incubation, 100 μl of the treated virus containing a total of 10^7 to 10^6 plaque forming units (PFU) of virus or their corresponding 1:10 or 1:100 dilutions were used to infect monolayers of A549 lung epithelial cells in quadruplicate 24-well plates. […] Viral cytopathic effect was examined at 2 days post infection. One hundred μl of a dilution 1:10 of the original treated samples containing 10^6 PFU were used to infect additional wells. (C: PBS-treated 1:10; E: SinoFresh® product-treated 1:10; G: CPC-treated 1:10).
(Damage to the host cells serves as the signal in cytopathic effect assays.)

For experiment [2], the system named is RSV (Long strain). The experiment in a line: Virucidal efficacy: syncytia formation by pretreated RSV in Hep-2 cell monolayers. The format is cell-based. As to conditions: RSV pretreated 1 h at 35° C.; Hep-2 cells; two experiments (starting 10^7 PFU and 109 PFU); 0.05% CPC. The method, then: as §1
One hundred microliters (μl) of each virus suspension containing 5×10^6 PFU or 5×10^5 PFU were subsequently used to infect monolayers of Hep-2 cells in quadruplicate in 24-well plates. […] Viral cytopathic effect was examined at 2 days post infection. One hundred μl of a dilution 1:10 of the original treated samples containing […] were used to infect additional wells (Block C: PBS-treated 1:10; E: SinoFresh® product-treated 1:10; G: CPC-treated 1:10).
A second independent experiment was carried out with a starting concentration of 10^9 PFU.

Turning to `CCCCCCCCCCCCCCCC[n+]1ccccc1` [CPC, 1-hexa-decyl pyridinium chloride], the “development of cytopathic effect (CPE)” value in experiment [1] is reported as “no obvious CPE”. Also, in experiment [2], the “syncytia formation in infected monolayers” value was “prevented syncytia formation”.
